Measurements as given in patent US8268865B2, “Quaternary alkyl ammonium bacterial efflux pump inhibitors and therapeutic uses thereof” (Rempex Pharmaceuticals, Inc., priority 2007, dated 2012).
Read-outs that look alike come from different tables or passages of the source.

What was measured:
[1] = Rat serum pharmacokinetics after 1.5-hour IV infusion; assay type: in vivo; conditions: for clearance: read-out: Clearance (free drug clearance) (converted)
Protocol: In the experiment depicted in Table 2, rat serum pharmacokinetics of compounds selected inhibitor compounds was evaluated after 1.5-hour IV infusion of 1.5 ml solution of corresponding efflux pump inhibitor in 0.9% saline. Depending on the concentration used the total infused dose was 10 or 20 mg/kg. A two-compartment model was used to fit the data and calculate PK parameters.

[2] = test system: P. aeruginosa strain PAM1723 overexpressing MexAB-OprM; assay: Checkerboard assay: potentiation of in vitro antibacterial activity of levofloxacin by efflux pump inhibitors; assay type: cell-based; conditions: for MPC8: lowest inhibitor concentration giving antibacterial activity with levofloxacin at 1/8 of its MIC; for MPC8 / MPC32: PAM1723, MHB, 20 h at 35° C.; for MPC32: lowest inhibitor concentration giving antibacterial activity with levofloxacin at 1/32 of its MIC
Protocol: EPI activity was recorded as concentration of an EPI compound that is necessary to increase susceptibility to levofloxacin of the strain of P. aeruginosa, PAM1723, overexpressing the MexAB-OprM efflux pump eight-fold. The levofloxacin potentiating activity of the test compounds was assessed by the checkerboard assay (Antimicrobial Combinations, Antibiotics in Laboratory Medicine, Ed. Victor Lorian, M.D., Fourth edition, 1996, pp 333-338, which is incorporated herein by reference in its entirety) using a broth microdilution method performed as recommended by the NCCLS (National Committee for Clinical Laboratory Standards (NCCLS), 1997, Methods for Dilution of Antimicrobial Susceptibility Tests for Bacteria That Grow Aerobically, Fourth Edition; Approved Standard. NCCLS Document M7-A4, Vol 17 No. 2, which is incorporated herein by reference in its entirety). In this assay, multiple dilutions of two drugs, namely an EPI and levofloxacin, were tested, alone and in combination, at concentrations equal to, above and below their respective minimal inhibitory concentrations (MICs). All EPI compounds were readily soluble in water and stock solutions were prepared at a final concentration of 10 mg/ml. Stock solutions were further diluted, according to the needs of the particular assay, in Mueller Hinton Broth (MHB). Stock solution was stored at −80° C.
The checkerboard assay was performed in microtiter plates. Levofloxacin was diluted in the x-axis, each column containing a single concentration of levofloxacin. EPIs were diluted in the y-axis, each row containing a single concentration of an EPI. The result of these manipulations was that each well of the microtiter plate contained a unique combination of concentrations of the two agents. The assay was performed in MHB with a final bacterial inoculum of 5×105 CFU/ml (from an early-log phase culture). Microtiter plates were incubated during 20 h at 35° C. and were read using a microtiterplate reader (Molecular Devices) at 650 nm as well as visual observation using a microtiter plate-reading mirror.
In the experiment depicted in Table 1, potentiating activities of selected inhibitors are reported as Minimum Potentiating Concentration MPC8 values (or MPC32) which correspond to the lowest concentration of the inhibitor required to achieve antibacterial activity in combination with the concentration of levofloxacin equal to ⅛ (or 1/32) of the levofloxacin concentration required to achieve the same antibacterial effect alone (MIC of levofloxacin).

[3] = rat serum, 1.5-hour IV infusion, dose 20 mg/kg, two-compartment model
[4] = rat serum, 1.5-hour IV infusion, dose 20 mg/kg, read-out: Cmax
[5] = rat, IV infusion, comparison among compounds of Table 2
[6] = rat serum, 1.5-hour IV infusion, dose 10 mg/kg, two-compartment model
[7] = rat serum, 1.5-hour IV infusion, dose 10 mg/kg, read-out: Cmax

| clearance [1, 3] | Cmax [1, 4] | clearance [1, 6] | Cmax [1, 7] | Compound | also measured |
| --- | --- | --- | --- | --- | --- |
| 16.7 mL/min/kg | 63000 ng/mL |  |  | C[N+](CCN)(CCN)CCC[C@H](N)C(=O)N[C@H](CCc1ccc(C(F)(F)F)cc1)C(=O)Nc1cnc2ccccc2c1 [Compound 33, 3-[(2R)-2-[(4S)-1-N,1-N-bis(2-azaniumylethyl)-4-formamido-1-N-methylbutane-1,4-bis(aminium)]-4-[4-(trifluoromethyl)phenyl]butanamido]quinolin-1-ium pentachloride] |  |
| 5.83 mL/min/kg | 54600 ng/mL |  |  | C[N+](CCN)(CCN)CCC[C@H](N)C(=O)N[C@H](CCc1ccccc1)C(=O)Nc1cnc2ccccc2c1 [Compound 27, 3-[(2R)-2-[(4S)-1-N,1-N-bis(2-azaniumylethyl)-4-formamido-1-N-methylbutane-1,4-bis(aminium)]-4-phenylbutanamido]quinolin-1-ium pentachloride] | serum PK profile (in words) [1, 5]: best serum PK profiles |
|  |  | 14.2 mL/min/kg | 25600 ng/mL | C[N+](CCN)(CCN)CCC[C@H](N)C(=O)N[C@@H](CCc1ccccc1)C(=O)Nc1cnc2ccccc2c1.Cl.Cl.[Cl-] [Compound 29, 3-[(2S)-2-[(4S)-1-N,1-N-bis(2-azaniumylethyl)-4-formamido-1-N-methylbutane-1,4-bis(aminium)]-4-phenylbutanamido]quinolin-1-ium pentachloride] |  |
|  |  |  |  | 3-[(2R)-2-[(4S)-1-N,1-N-bis(2-azaniumylethyl)-4-formamido-1-N-methylbutane-1,4-bis(aminium)]-4-phenylbutanamido]-1-{[4-(trifluoromethyl)phenyl]methyl}quinolin-1-ium pentachloride [Compound 53] | MPC8 [2]: 2.5 µg/mL; MPC32 [2]: 5 µg/mL |
|  |  | 21.5 mL/min/kg | 13400 ng/mL | C[N+](C)(CCN)CCC[C@H](N)C(=O)N[C@H](CCc1ccccc1)C(=O)Nc1cnc2ccccc2c1 [Compound 4, 3-[(2S)-2-[(4R)-1-N-(2-azaniumylethyl)-4-formamido-1-N,1-N-dimethylbutane-1,4-bis(aminium)]-4-phenylbutanamido]quinolin-1-ium tetrachloride] |  |
|  |  |  |  | Mixture of 3-[(2S,3R)-2-[(4S)-1-N,1-N-bis(2-azaniumylethyl)-4-formamido-1-N-methylbutane-1,4-bis(aminium)]-3-hydroxy-3-[4-(trifluoromethyl)phenyl]propanamido]quinolin-1-ium pentachloride 15a and 3-[(2R,3S)-2-[(4S)-1-N,1-N-bis(2-azaniumylethyl)-4-formamido-1-N-methylbutane-1,4-bis(aminium)]-3-hydroxy-3-[4-(trifluoromethyl)phenyl]propanamido]quinolin-1-ium pentachloride 15b [Compound 15] | MPC8 [2]: 0.312 µg/mL; MPC32 [2]: 0.625 µg/mL |
|  |  |  |  | 3-{2-[(4S)-1-N,1-N-bis(2-azaniumylethyl)-4-(N-methylformamido)-1-N-(prop-2-en-1-yl)butane-1,4-bis(aminium)]-3-[4-(trifluoromethyl)phenyl]propanamido}quinolin-1-ium pentachloride [Compound 92] | Cmax ([1]; rat serum, 1.5-hour IV infusion, dose 20 mg/kg): 18300 ng/mL; Clearance (free drug clearance) [1, 3]: 1.59 L/h/kg; MPC8 [2]: 0.312 µg/mL; MPC32 [2]: 0.625 µg/mL |
|  |  | 47.8 mL/min/kg | 7300 ng/mL | C[N+](CCN)(CCN)CCC[C@H](N)C(=O)N[C@@H](Cc1ccc(C(F)(F)F)cc1)C(=O)Nc1cnc2ccccc2c1 [Compound 11, 3-[(2R)-2-[(4R)-1-N,1-N-bis(2-azaniumylethyl)-4-formamido-1-N-methylbutane-1,4-bis(aminium)]-3-[4-(trifluoromethyl)phenyl]propanamido]quinolin-1-ium pentachloride] |  |
| 10.8 mL/min/kg | 40200 ng/mL |  |  | C[C@@H](N)C(=O)N[C@@H](CCC[N+](C)(CCN)CCN)C(=O)N[C@@H](Cc1ccc(C(F)(F)F)cc1)C(=O)Nc1cnc2ccccc2c1 [Compound 44, 3-[(2S)-2-[(4S)—N,N-bis(2-azaniumylethyl)-4-formamido-4-[(1R)-1-formamidoethan-1-aminium]-N-methylbutan-1-aminium]-3-[4-(trifluoromethyl)phenyl]propanamido]quinolin-1-ium pentachloride] | serum PK profile (in words) [1, 5]: best serum PK profiles |
| 20.5 mL/min/kg | 19600 ng/mL |  |  | C[N+](C)(CCN)CCC[C@H](N)C(=O)N[C@H](CCc1ccccc1)C(=O)Nc1ccc(F)c(F)c1F [Compound 5, [(4S)-4-azaniumyl-4-{[(1R)-3-phenyl-1-[(2,3,4-trifluorophenyl)carbamoyl]propyl]carbamoyl}butyl](2-azaniumylethyl)dimethylazanium trichloride] |  |
|  |  | 16.7 mL/min/kg | 13000 ng/mL | C[N+](CCN)(CCN)CCC[C@H](N)C(=O)N[C@@H](CC1CCCCC1)C(=O)Nc1cnc2ccccc2c1.Cl.Cl.Cl.Cl.[Cl-] [Compound 25, 3-[(2S)-2-[(4S)-1-N,1-N-bis(2-azaniumylethyl)-4-formamido-1-N-methylbutane-1,4-bis(aminium)]-3-cyclohexylpropanamido]quinolin-1-ium pentachloride] |  |

| Compound | clearance [1, 3] | Cmax [1, 4] | clearance [1, 6] | Cmax [1, 7] | also measured |
| --- | --- | --- | --- | --- | --- |
| C[N+](CCN)(CCN)CCC[C@H](N)C(=O)N[C@H](Cc1ccc(C(F)(F)F)cc1)C(=O)Nc1cnc2ccccc2c1 [Compound 10, 3-[(2R)-2-[(4S)-1-N,1-N-bis(2-azaniumylethyl)-4-formamido-1-N-methylbutane-1,4-bis(aminium)]-3-[4-(trifluoromethyl)phenyl]propanamido]quinolin-1-ium pentachloride] |  |  | 5.17 mL/min/kg | 30600 ng/mL | free drug clearance (in words) [1, 5]: lowest free drug clearance; serum PK profile (in words) [1, 5]: best serum PK profiles; efflux pump inhibitory activity (in words) ([2]; comparison among tested compounds): one of the best efflux pump inhibitory activities |
